The values below come from PubChem BioAssay AID464 (The Scripps Research Institute Molecular Screening Center, 2006).

The source made the active and inactive calls.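 The calls were made as follows: active = Compounds that kill half the cells at a concentration of 5 micromolar or below, from the fitted or estimated CC50; inactive = CC50 above 5 micromolar.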 A value given as a limit tells only on which side of the number the result lay.

The assay concerns Jurkat E6.1 viability, ATP luminescence, 48 h. The assay can be described thus: viability loss in Jurkat T cells – cell-based, ATP luminescence, 48 h, 60K MLSMR, cytotoxicity control, dose response (AID 464).
In general, CC50 refers to the concentration that lowers cell viability or growth by half. As to `Cn1c(=O)oc2cc(S(=O)(=O)N3CCCc4ccccc43)ccc21`, the CC50 is 0.173 µM.
In the case of `CCC(C)c1ccc(NC(=O)C2CCCN(c3ncccn3)C2)cc1` (stereo not given), the CC50 is 10.4 µM (inactive).
The figure for `CC(=O)N1CCc2c(sc(NC(=O)c3ccc4c(c3)OCCO4)c2C#N)C1` is 2.6 µM; for `CC1=C(C)CS(=O)N(S(=O)(=O)c2ccc(Cl)cc2)C1` (stereo not given) it is 2.96 µM.
The figure for `O=c1cc(-c2ccccc2)[nH]c2ccccc12` is 0.373 µM; for `COc1cc(C2=NOC(C(=O)NCc3ccco3)C2)cc(OC)c1OC` (stereo not given) it is 2.21 µM; for `Cc1cccc2cc3c(N)c(C(=O)N4CCOCC4)sc3nc12` it is 0.95 µM.
For `Cn1nc(CC(=O)Nc2ccc3c(c2)OCCO3)c2ccccc2c1=O` the value was 0.96 µM; for `CCOC(=O)c1nc(S(C)(=O)=O)ncc1Cl`, 4.66 µM.
For the compound `Cc1noc(C)c1COc1cccc(C(=O)OCC(=O)N2CC(=O)Nc3ccccc32)c1`, the CC50 is 6.33 µM (inactive).
With `CC(=O)c1c(N2CCN(Cc3ccccc3)CC2)[nH]c(-c2ccccc2)nc1=S`, the CC50 is > 40 µM (inactive).
As to `Cc1ccc(Cl)cc1N1CCN(C(=O)COc2ccc(S(=O)(=O)NC(C)C)cc2)CC1`, the CC50 was 6.43 µM (inactive).
The figure for `Cc1c(C(=O)OC2CCCC2)[nH]c2c1C(=O)CC(c1ccco1)C2` (stereo not given) is 0.167 µM; for `Cn1nnnc1SCC(=O)Nc1ccc(Oc2ccc(Cl)cc2)cc1` it is 36.8 µM (inactive); for `CC(=O)Nc1ccccc1OCC(=O)c1cc(C)n(Cc2cccs2)c1C` it is 0.16 µM.
Regarding `Cc1nc2sccn2c1-c1csc(NCc2ccccc2)n1`, the CC50 is 4.81 µM.
On to `COc1ccccc1-c1cc(C(=O)Nc2cc(C)nn2-c2ccccc2)no1`, for which the CC50 was 6.14 µM (inactive).
The figure for `Cc1cc(NC(c2cccnc2)c2ccc3cccnc3c2O)no1` (stereo not given) is 3.25 µM.
The figure for `COc1ccc(CC(=O)Nc2cccc(-c3nnc(-c4cccc(C)c4)o3)c2)cc1OC` is 7.1 µM (inactive).
On to `CC1=C(C(=O)OCc2ccc3c(c2)OCO3)C(c2ccc(Cl)cc2)NC(=O)N1` (stereo not given), for which the CC50 is 12.6 µM (inactive).
`CCOC(=O)Nc1c(C(=O)OC)[nH]c2cc(OC)ccc12`: the CC50 is 7.94 µM (inactive).
For `Cc1ccc(C2c3c(-c4ccccc4O)n[nH]c3C(=O)N2Cc2ccncc2)cc1` (stereo not given) the value was 6.79 µM (inactive); for `Cc1cc(C)cc(NS(=O)(=O)c2ccc3[nH]cc(C(=O)NCc4ccco4)c(=O)c3c2)c1`, 5.48 µM (inactive); for `CCOC(=O)c1[nH]c(C)c(C(=O)Nc2ccccc2C)c1C`, 0.63 µM.
With `CCc1ccc2nc(NC(=O)c3cc(C)on3)sc2c1`, the CC50 was 3.71 µM.
For `Cc1cc(C)nc(NC(=O)Nc2ccccc2C(F)(F)F)n1`, the CC50 was > 4.4 µM (inactive).
In the case of `COc1ccc(-n2nnnc2-c2cccc(OC)c2)cc1`, the CC50 is 0.195 µM.
The figure for `O=S1(=O)C=C(Sc2nnc(-c3ccccc3)o2)c2ccccc21` is > 13 µM (inactive); for `CCCCn1c2c(c(=N)c3c1CCC3)CCC2` it is 3.9 µM; for `COc1ccccc1-n1nnnc1S(=O)(=O)Cc1ccc(Cl)cc1` it is 3.3 µM.
The figure for `COC(=O)c1ccc(Oc2cc(C)nc(SC)n2)cc1` is 1.68 µM; for `CCOC(=O)N1CCN(S(=O)(=O)c2ccc(C(=O)Nc3ccc(F)cc3F)cc2)CC1` it is 1.09 µM.
As to `O=c1cc(CSc2nnc(-c3cccs3)n2Cc2ccccc2)nc2sc3ccccc3n12`, the CC50 was 4.96 µM.
With `O=c1cc(Nc2ccc3c(c2)OCCO3)[nH]c(=O)n1C1CCCCC1`, the CC50 is 11.7 µM (inactive).
Take `CCc1ccc(CCC(=O)Nc2sc3c(c2C#N)CCCC3)o1`: the CC50 was 3.05 µM.
For `NS(=O)(=O)c1ccc(CCNc2ncnc3sccc23)cc1` the value was 3.37 µM.
For the compound `CCOC(=O)N1CCN(CC(=O)Nc2c(C(=O)OC)[nH]c3ccc(Cl)cc23)CC1`, the CC50 is > 40 µM (inactive).
For `O=C(c1ccncc1)N(Cc1cc2ccccc2[nH]c1=O)C1CCCCC1` the value was 5.31 µM (inactive); for `O=c1c2[nH]c3ccc(F)cc3c2ncn1CCCn1ccnc1`, 17.1 µM (inactive); for `c1csc(CCNc2ncnc3sc4c(c23)CCC4)c1`, 13.2 µM (inactive).
For `CCCOc1ccc2ccccc2c1/C=N/n1c(C)nnc1-n1nc(C)cc1C` the value was 1.96 µM; for `COc1ccccc1-c1cc(C(F)(F)F)nc(S(=O)(=O)CCCC(=O)N2CCCCC2C)n1` (stereo not given), 4.22 µM.
For the compound `CCn1nc(-c2cccs2)nc2c(=O)n(C)c(=O)nc1-2`, the CC50 was > 40 µM (inactive).
The figure for `CCOC(=O)c1[nH]c2c(c1C)C(=O)CC(c1ccco1)C2` (stereo not given) is 0.201 µM; for `O=S(=O)(C/C(=C/CO)S(=O)(=O)c1ccccc1)c1ccccc1` it is 2.2 µM; for `COc1ccc(C(=O)N2CCN(c3cccc(Cl)c3)CC2)c(OC)c1` it is 8.58 µM (inactive).
As to `COc1ccc(CCNc2nnc(Sc3nnnn3-c3ccccc3)s2)cc1OC`, the CC50 was 0.875 µM.
For `CCC1CCCCN1S(=O)(=O)c1ccc(C(=O)Nc2nnc(-c3cccs3)o2)cc1` (stereo not given) the value was 11.6 µM (inactive); for `CN1c2ccccc2C(C)(C)C12C=Cc1cc(O)ccc1O2` (stereo not given), 10.4 µM (inactive); for `CCN(C)c1ccc(/C=N\n2nnnc2N)cc1`, 4.71 µM.
For `COc1ccc(OC)c(Nc2cc(-c3ccccc3)nc(N)n2)c1` the value was 0.699 µM.
For `COc1cc(NC(=O)c2ccc3c(c2)OCO3)ccc1NC(=O)C(C)C` the value was 2.19 µM.
`CCC(=NC(C)c1ccccc1)c1c(O)n(C)c(=O)n(C)c1=O` (stereo not given): the CC50 was 11.3 µM (inactive).
In the case of `CCn1c(C)nc2cc(-c3nc4n(n3)Cc3ccccc3-4)ccc21`, the CC50 was 2.57 µM.
As to `CCOC(=O)CSC1=C(C#N)C(c2ccc(C)o2)CC(=O)N1` (stereo not given), the CC50 was 0.535 µM.
As for `CN(C)c1ccc(C(=O)c2ccc(N(C)C)c(N)c2)cc1N`, the CC50 is 8.53 µM (inactive).
With `O=c1c2ccccc2nnn1CSc1nnc(-c2cccs2)n1Cc1ccccc1`, the CC50 was > 40 µM (inactive).
For `COc1ccccc1NC(=O)N(Cc1ccco1)Cc1cc2ccc(C)c(C)c2[nH]c1=O`, the CC50 was 1.81 µM.
The figure for `COCCCN1C(=O)c2[nH]nc(-c3ccccc3O)c2C1c1cccc(Cl)c1` (stereo not given) is 3.39 µM; for `O=C(Nc1ccn(-c2ccccc2)n1)c1ccc(S(=O)(=O)N2CCCCCC2)cc1` it is 19.8 µM (inactive).
The figure for `Clc1ccc(-n2nnnc2Sc2ncnc3sccc23)cc1` is > 13 µM (inactive); for `Cc1ccc(S(=O)(=O)NCc2ccncc2)cc1` it is 2.87 µM.
The figure for `O=C(Nc1nccs1)c1ccc(S(=O)(=O)NCC2CCCCC2)cc1` is > 40 µM (inactive); for `CCn1c(=O)c(C(=O)Nc2nc3ccccc3[nH]2)c(O)c2ccccc21` it is 14.3 µM (inactive); for `O=C(CCNc1ccc(F)c(Cl)c1)c1ccco1` it is > 13 µM (inactive).
`CCOC(=O)N1CCN(C(=O)c2ccccc2-c2ccccc2)CC1`: the CC50 is 1.91 µM.
For `O=C(Nc1nc(-c2nc3ccccc3s2)cs1)c1ccc(S(=O)(=O)N2CCOCC2)cc1` the value was > 40 µM (inactive); for `O=C(CSc1ncnc2sc3c(c12)CCCCC3)NCc1ccco1`, 9.83 µM (inactive); for `CC(C)OCCCNc1ncnc2c1[nH]c1ccc(F)cc12`, 2.02 µM.
The figure for `CCN(CC)C(=O)C1CCCc2c1[nH]c1ccc(Cl)cc21` (stereo not given) is > 40 µM (inactive).
`O=C(NCc1cccc(F)c1)c1noc2c1CCCC2`: the CC50 is 8.73 µM (inactive).
For `CCn1c(SCC(=O)c2c[nH]c3ccccc23)nnc1-c1cccs1` the value was 8.26 µM (inactive); for `CN1/C(=C/C(=O)c2nc(S(C)(=O)=O)ncc2Cl)C(C)(C)c2ccccc21`, > 13 µM (inactive); for `CCCCCOC(=O)c1[nH]c2c(c1C)C(=O)CC(c1ccco1)C2` (stereo not given), 0.084 µM.
In the case of `CCOC(=O)c1c(C)c(C(=O)Nc2cc(F)ccc2F)c(C)n1C`, the CC50 is 6.52 µM (inactive).
The figure for `O=C(Nc1ccncc1)C1CCCN(S(=O)(=O)c2cccc3cccnc23)C1` (stereo not given) is 1.42 µM.
`COc1ccc(N(CC(=O)Nc2cc(Cl)ccc2OC)S(=O)(=O)c2c(C)noc2C)cc1`: the CC50 is 2.97 µM.
For `CCCCOc1ccc(C(=O)Nc2ccncc2)cc1` the value was 1.79 µM; for `Clc1ccc(CCNc2ncnc3nc[nH]c23)cc1`, 19.6 µM (inactive); for `COc1cc(C(Nc2ccccn2)c2ccc3ccc(C)nc3c2O)cc(OC)c1O` (stereo not given), 6.78 µM (inactive).
The figure for `COc1cccc(OC)c1-c1nn2c(-c3cc(-c4ccccc4)n[nH]3)nnc2s1` is 8.6 µM (inactive).
Turning to `Cc1cc(Cl)ccc1OCCCC(=O)NO`, the CC50 is 8.2 µM (inactive).
For `Cc1c(C(=O)OCCOC(C)C)[nH]c2c1C(=O)CC(c1ccco1)C2` (stereo not given) the value was 0.156 µM.
Regarding `CCn1c(NC(=O)c2cccc(Cn3cc(Cl)cn3)c2)nc2ccccc21`, the CC50 is > 40 µM (inactive).
Consider `Cc1cc2nnc(SCC(=O)NCc3ccco3)n2c2ccccc12`, for which the CC50 was 1.9 µM.
For `CCOc1ccccc1NC(=O)Cn1nnc(C(=O)NCc2ccco2)c1N` the value was 0.078 µM; for `O=C(Cn1cnc2c(cnn2-c2ccc(F)cc2)c1=O)NCc1ccco1`, > 4.4 µM (inactive).
As to `O=C(NCc1cccnc1)NC1(C(F)(F)F)Oc2ccc(Cl)cc2O1` (stereo not given), the CC50 is 8.08 µM (inactive).
On to `CCOC(=O)C1CCN(C(c2cccnc2)c2c(NC(=O)c3ccco3)sc(C)c2C)CC1` (stereo not given), for which the CC50 was > 40 µM (inactive).
`CCCNc1nc2c(c(=O)n(C)c(=O)n2C)n1Cc1cccc(C)c1`: the CC50 is 10.8 µM (inactive).
Take `CC(=O)Oc1ccc(Oc2ccc(-c3noc(C)n3)cc2)cc1`: the CC50 is > 40 µM (inactive).
For the compound `Cc1[nH]c2c(C(F)(F)F)cccc2c1CCN`, the CC50 was 10.4 µM (inactive).
The figure for `O=C(Nc1nnc(C2CC2)o1)c1ccc(S(=O)(=O)N2CCCc3ccccc32)cc1` is 22.9 µM (inactive).
Consider `COc1cc(C(=O)N2CCN(c3cccc(C)c3C)CC2)cc(OC)c1OC`, for which the CC50 is 0.37 µM.
For `O=C(NCC(c1cccs1)N1CCOCC1)c1ccc(Cl)s1` (stereo not given) the value was 0.882 µM.
